From patent US20210251963A1, “UREA DERIVATIVES FOR USE IN THE TREATMENT OF SUBJECTS WITH ELEVATED EXPRESSION AND/OR ACTIVITY OF SRPK1” (Scandion Oncology A/S, priority 2018, published 2021)

Tests used:
[1] = test system: HT29 SN38 resistant colon cancer cells; test: Cell viability (MTT assay); assay type: cell-based; conditions: for cell viability, % of untreated control cells: HT29 SN38 resistant
Procedure: (§1) SN38 was applied to a SN38 sensitive colon cancer cell line (“HT29 parental”) and to a SN38 resistant colon cancer cell line (“HT29 SN38 resistant”).
(§2) The Log Concentration (μM) used are—1 for SN38. Data represents cell viability data (MTT assay) and cells were incubated with drugs for 72 hours.
The Log Concentrations (μM) used are—1 for SN38, and 1.5 for both Srpkin340 and Sphinx 31. Data represents cell viability data (MTT assay) and cells were incubated with drugs for 72 hours.

[2] = test system: HT29 parental colon cancer cells; test: Cell viability (MTT assay); assay type: cell-based; conditions: SN38 Log Concentration (μM) -1, 72 hours
Procedure: as §1, §2

CCc1c2c(nc3ccc(O)cc13)-c1cc3c(c(=O)n1C2)COC(=O)[C@]3(O)CC [SN38, reference compound]
cell viability, % of untreated control cells ([1]; SN38 0.1 μM alone, 72 hours, Example 4): 75% | cell viability, % of untreated control cells ([1]; SN38 Log Concentration (μM) -1, 72 hours, Example 3): 73% | cell viability, % of untreated control cells [2]: 27%

O=C(Nc1cc(C(F)(F)F)ccc1N1CCN(Cc2ccccn2)CC1)c1ccc(-c2ccncc2)o1 [Sphinx31, reference compound]
restoration of SN38 sensitivity in SN38 resistant HT29 colon cancer cells ([1]; Log Concentration (μM) 1.5 of inhibitor with SN38 -1, 72 hours): can restore the SN38 sensitivity
